Measurements published in the NIST ThermoML archive (doi:10.1016/j.fluid.2014.11.020).
Numbers after ± are expanded uncertainties.

Assay: activity coefficient (dimensionless); of the first substance listed, at infinite dilution; xn = mol fraction of the nth substance listed
Details: Liquid, Chromatography, x1 = 0

SMILES	activity coefficient (323.15 K)	activity coefficient (333.15 K)	activity coefficient (343.15 K)
CC(C)OC(C)C [diisopropyl ether] + CCCCCCCCn1cc[n+](COCCC)c1C.N#C[N-]C#N	4.17 ± 0.28	4.05 ± 0.28	
CCC(C)=O [butanone] + CCCCCCCCn1cc[n+](COCCC)c1C.O=S(=O)([N-]S(=O)(=O)C(F)(F)F)C(F)(F)F	0.36 ± 0.03	0.33 ± 0.03	0.3 ± 0.03
CCCC(C)=O [pentan-2-one] + CCCCCCCCn1cc[n+](COCCC)c1C.O=S(=O)([N-]S(=O)(=O)C(F)(F)F)C(F)(F)F	0.48 ± 0.04	0.48 ± 0.04	0.48 ± 0.04
Cc1ccc(C)cc1 [1,4-dimethylbenzene] + Cn1cc[n+](COCCCOC[n+]2ccn(C)c2)c1.O=S(=O)([N-]S(=O)(=O)C(F)(F)F)C(F)(F)F.O=S(=O)([N-]S(=O)(=O)C(F)(F)F)C(F)(F)F	2.39 ± 0.16	2.41 ± 0.16	2.34 ± 0.16
ClCCl [dichloromethane] + CCCOC[n+]1ccn(C)c1.F[B-](F)(F)F	1.07 ± 0.07	1.16 ± 0.07	1.19 ± 0.08
CC(C)O [propan-2-ol] + CCCOC[n+]1ccc(N(C)C)cc1.O=S(=O)([N-]S(=O)(=O)C(F)(F)F)C(F)(F)F	1.7 ± 0.11	1.62 ± 0.11	1.45 ± 0.1
c1ccsc1 [thiophene] + CCCCCCCCn1cc[n+](COCCC)c1C.N#C[N-]C#N	0.66 ± 0.05	0.66 ± 0.05	0.64 ± 0.04
Cc1ccccc1C [1,2-dimethylbenzene] + CCCOC[n+]1ccc(N(C)C)cc1.O=S(=O)([N-]S(=O)(=O)C(F)(F)F)C(F)(F)F	1.24 ± 0.08	1.31 ± 0.09	1.33 ± 0.09
c1ccncc1 [pyridine] + CN(C)c1cc[n+](COCCCOC[n+]2ccc(N(C)C)cc2)cc1.O=S(=O)([N-]S(=O)(=O)C(F)(F)F)C(F)(F)F.O=S(=O)([N-]S(=O)(=O)C(F)(F)F)C(F)(F)F	0.29 ± 0.03	0.31 ± 0.03	0.32 ± 0.03
CCCC(C)=O [pentan-2-one] + CCCCCCCCn1cc[n+](COCCCOC[n+]2ccn(CCCCCCCC)c2C)c1C.O=S(=O)([N-]S(=O)(=O)C(F)(F)F)C(F)(F)F.O=S(=O)([N-]S(=O)(=O)C(F)(F)F)C(F)(F)F	0.29 ± 0.03	0.29 ± 0.03	0.3 ± 0.03
CC#N [acetonitrile] + CCCOC[n+]1ccn(Cc2ccccc2)c1.N#C[N-]C#N	0.72 ± 0.05	0.76 ± 0.05	0.77 ± 0.05
CCCCCC [hexane] + CCCOC[n+]1ccn(C)c1.O=S(=O)([N-]S(=O)(=O)C(F)(F)F)C(F)(F)F	15.9 ± 1.1	13.3 ± 0.91	
CCC[N+](=O)[O-] [1-nitropropane] + CCCCCCCCn1cc[n+](COCCCOC[n+]2ccn(CCCCCCCC)c2C)c1C.N#C[N-]C#N.N#C[N-]C#N	0.59 ± 0.04	0.58 ± 0.04	0.58 ± 0.04
CCCCCCCC [octane] + CCCOC[n+]1ccn(C)c1.N#C[N-]C#N	155 ± 11	135 ± 9.2	112 ± 7.7
CCCCCCCC [octane] + Cn1cc[n+](COCCCOC[n+]2ccn(C)c2)c1.O=S(=O)([N-]S(=O)(=O)C(F)(F)F)C(F)(F)F.O=S(=O)([N-]S(=O)(=O)C(F)(F)F)C(F)(F)F	60.4 ± 4.1	60.6 ± 4.2	38.4 ± 2.6
CCCCCCC [heptane] + CCCCCCCCn1cc[n+](COCCC)c1C.O=S(=O)([N-]S(=O)(=O)C(F)(F)F)C(F)(F)F	4.64 ± 0.32	4.56 ± 0.31	3.98 ± 0.27
CCCCCCCCC [nonane] + CCCOC[n+]1ccn(Cc2ccccc2)c1.F[B-](F)(F)F	179 ± 12	164 ± 11	126 ± 8.7
C1CCCCC1 [cyclohexane] + CCCCCCCCn1cc[n+](COCCCOC[n+]2ccn(CCCCCCCC)c2C)c1C.N#C[N-]C#N.N#C[N-]C#N	4.29 ± 0.29	3.86 ± 0.26	3.71 ± 0.25
CO [methanol] + CCCCCCCCn1cc[n+](COCCC)c1C.O=S(=O)([N-]S(=O)(=O)C(F)(F)F)C(F)(F)F	0.98 ± 0.06	0.89 ± 0.06	0.85 ± 0.05
CC1CCCC1 [methylcyclopentane] + CCCOC[n+]1ccn(Cc2ccccc2)c1.N#C[N-]C#N	15.7 ± 1.1	15.2 ± 1	13.5 ± 0.92
Cc1ccc(C)cc1 [1,4-dimethylbenzene] + CCCCCCCCn1cc[n+](COCCCOC[n+]2ccn(CCCCCCCC)c2C)c1C.O=S(=O)([N-]S(=O)(=O)C(F)(F)F)C(F)(F)F.O=S(=O)([N-]S(=O)(=O)C(F)(F)F)C(F)(F)F	0.75 ± 0.05	0.73 ± 0.05	0.73 ± 0.05
c1ccncc1 [pyridine] + Cn1cc[n+](COCCCOC[n+]2ccn(C)c2)c1.N#C[N-]C#N.N#C[N-]C#N	1 ± 0.06	1.01 ± 0.06	1.04 ± 0.07

SMILES	activity coefficient (323.15 K)	activity coefficient (333.15 K)	activity coefficient (343.15 K)
CC1CCCCC1 [methylcyclohexane] + CCCCCCCCn1cc[n+](COCCC)c1C.O=S(=O)([N-]S(=O)(=O)C(F)(F)F)C(F)(F)F	3.09 ± 0.21	2.91 ± 0.2	2.8 ± 0.19
CCCO [propan-1-ol] + CCCCCCCCn1cc[n+](COCCC)c1C.O=S(=O)([N-]S(=O)(=O)C(F)(F)F)C(F)(F)F	1.16 ± 0.07	1.06 ± 0.07	0.98 ± 0.06
C#CCCCC [1-hexyne] + CN(C)c1cc[n+](COCCCOC[n+]2ccc(N(C)C)cc2)cc1.O=S(=O)([N-]S(=O)(=O)C(F)(F)F)C(F)(F)F.O=S(=O)([N-]S(=O)(=O)C(F)(F)F)C(F)(F)F	3 ± 0.2	2.96 ± 0.2	2.92 ± 0.2
CCCCCCCCCCC [undecane] + Cn1cc[n+](COCCCOC[n+]2ccn(C)c2)c1.N#C[N-]C#N.N#C[N-]C#N	938 ± 65	899 ± 62	797 ± 55
Cc1cccc(C)c1 [1,3-dimethylbenzene] + CCCOC[n+]1ccc(N(C)C)cc1.O=S(=O)([N-]S(=O)(=O)C(F)(F)F)C(F)(F)F	1.4 ± 0.09	1.47 ± 0.1	1.48 ± 0.1
CC1CCCCC1 [methylcyclohexane] + CCCOC[n+]1ccn(C)c1.O=S(=O)([N-]S(=O)(=O)C(F)(F)F)C(F)(F)F	13 ± 0.89	12.9 ± 0.88	13 ± 0.89
CCC(=O)CC [pentan-3-one] + CN(C)c1cc[n+](COCCCOC[n+]2ccc(N(C)C)cc2)cc1.O=S(=O)([N-]S(=O)(=O)C(F)(F)F)C(F)(F)F.O=S(=O)([N-]S(=O)(=O)C(F)(F)F)C(F)(F)F	0.67 ± 0.05	0.69 ± 0.05	0.7 ± 0.05
CC(C)O [propan-2-ol] + CCCOC[n+]1ccn(C)c1.F[B-](F)(F)F	2.91 ± 0.2	2.7 ± 0.18	2.6 ± 0.18
CCCCCCCCCCCC [dodecane] + CCCOC[n+]1ccc(N(C)C)cc1.O=S(=O)([N-]S(=O)(=O)C(F)(F)F)C(F)(F)F	73.5 ± 5	69.4 ± 4.8	61.7 ± 4.2
C=CCCCC [hex-1-ene] + CCCOC[n+]1ccn(Cc2ccccc2)c1.O=S(=O)([N-]S(=O)(=O)C(F)(F)F)C(F)(F)F	5.09 ± 0.35	4.32 ± 0.29	4.05 ± 0.28
C#CCCCC [1-hexyne] + CCCCCCCCn1cc[n+](COCCCOC[n+]2ccn(CCCCCCCC)c2C)c1C.O=S(=O)([N-]S(=O)(=O)C(F)(F)F)C(F)(F)F.O=S(=O)([N-]S(=O)(=O)C(F)(F)F)C(F)(F)F	1.13 ± 0.07	1.13 ± 0.07	1.14 ± 0.07
Cc1ccccc1C [1,2-dimethylbenzene] + CCCOC[n+]1ccn(Cc2ccccc2)c1.F[B-](F)(F)F	4.3 ± 0.29	4.17 ± 0.28	4.22 ± 0.29
CCC(=O)CC [pentan-3-one] + CCCOC[n+]1ccn(C)c1.O=S(=O)([N-]S(=O)(=O)C(F)(F)F)C(F)(F)F	0.68 ± 0.05	0.69 ± 0.05	0.72 ± 0.05
ClCCl [dichloromethane] + Cn1cc[n+](COCCCOC[n+]2ccn(C)c2)c1.O=S(=O)([N-]S(=O)(=O)C(F)(F)F)C(F)(F)F.O=S(=O)([N-]S(=O)(=O)C(F)(F)F)C(F)(F)F	0.55 ± 0.04	0.61 ± 0.04	0.43 ± 0.04
CCCCCC [hexane] + CCCCCCCCn1cc[n+](COCCC)c1C.N#C[N-]C#N	7.08 ± 0.48	6.92 ± 0.47	6.8 ± 0.46
CC(C)CO [2-methyl-1-propanol] + CCCOC[n+]1ccn(C)c1.O=S(=O)([N-]S(=O)(=O)C(F)(F)F)C(F)(F)F	2.18 ± 0.15	1.93 ± 0.13	1.76 ± 0.12
CCCCCCCCC [nonane] + CCCCCCCCn1cc[n+](COCCCOC[n+]2ccn(CCCCCCCC)c2C)c1C.N#C[N-]C#N.N#C[N-]C#N	17.1 ± 1.2	15.8 ± 1.1	14.3 ± 0.98
C#CCCCCC [1-heptyne] + CCCOC[n+]1ccn(Cc2ccccc2)c1.O=S(=O)([N-]S(=O)(=O)C(F)(F)F)C(F)(F)F	2.82 ± 0.19	2.42 ± 0.16	2.25 ± 0.15
CCC(C)=O [butanone] + CCCOC[n+]1ccn(C)c1.N#C[N-]C#N	1.27 ± 0.08	1.19 ± 0.08	1.12 ± 0.07
c1ccsc1 [thiophene] + CCCOC[n+]1ccn(Cc2ccccc2)c1.O=S(=O)([N-]S(=O)(=O)C(F)(F)F)C(F)(F)F	0.7 ± 0.05	0.62 ± 0.04	0.62 ± 0.04
C1COCCO1 [1,4-dioxane] + CCCOC[n+]1ccn(Cc2ccccc2)c1.N#C[N-]C#N	0.84 ± 0.05	0.88 ± 0.06	0.89 ± 0.06
